Assay results taken from US20230190756A1, “PHARMACEUTICAL FORMULATION FOR THE ELIMINATION OF CAUSATIVE AGENTS OF HERPESVIRAL INFECTIONS FROM THE TISSUES OF A MACROORGANISM” (priority 2017, published 2023).

Key:
EBV lymphoma cells = conditions: cited from earlier work
[1] = test system: p300-induced p65 acetylation; conditions: in vitro and in vivo; cited from earlier work
EBV infection = conditions: cited from earlier work
[2] = Biological activity of fully substituted derivatives (test not specified)
Source text: Also, peak (2) was not divided into several small fragments, nor was it possible to separate it using different conditions of thin layer chromatography, which indicates the stable nature of the formed supramolecular structure from different derivatives.

HDAC = conditions: cited from earlier work

Row | Molecule | biological activity [2] | further results
1 | Nc1ccccc1NC(=O)c1ccc(CNC(=O)OCc2cccnc2)cc1 [MS275] |  | effective concentrations for sensitizing to ganciclovir (EBV lymphoma cells): effective at nanomolar concentrations
2 | O=C(O[C@@H]1Cc2c(O)cc(O)cc2O[C@@H]1c1cc(O)c(O)c(O)c1)c1cc(O)c(O)c(O)c1 [No 13 (Table 1), epigallocatechin gallate] |  | p300-induced p65 acetylation [1]: cancels; expression of cytokines induced by EBV infection (EBV infection): completely blocks
3 | octaacetyl epigalocatechin [fully acetylated epigalocatechin] | did not exhibit biological activity | 
4 | octaacetyl glycyrrhizin [fully acetylated glycyrrhizin] | did not exhibit biological activity | 
5 | octasuccinyl epigalocatechin [Fully succinylated epigalocatechin] | did not exhibit biological activity | 
6 | octasuccinyl glycyrrhizin [Fully succinylated glycyrrhizin] | did not exhibit biological activity | 
7 | trichostatin A [TCA] |  | IC50% (HDAC): in the nanomolar region
